From the supplement of paper PMC10307832

What was measured:
Assay in all cases: relative viability (nuclei count vs DMSO), 5 days (fraction); higher = more cells survive
NCI-H1666 = test system: NCI-H1666
Summary of the method: (§1)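 Relative viability is defined as nuclei in treated wells over nuclei in vehicle wells. Duplicate plates were run and medians reported. Lung cancer cell lines in 1536-well plates were dosed by pin tool one day after seeding, with one drug or with a fixed anchor-drug dose plus five library-drug doses (not always all listed) in √10 steps, and nuclei were counted after 5 days.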

BEN = test system: BEN
Summary of the method: as §1

NCI-H647 = test system: NCI-H647
Summary of the method: as §1

201T = test system: 201T
Summary of the method: as §1

NCI-H2087 = test system: NCI-H2087
Summary of the method: as §1

HCC-44 = test system: HCC-44
Summary of the method: as §1

COR-L 105 = test system: COR-L 105
Summary of the method: as §1

NCI-H2342 = test system: NCI-H2342
Summary of the method: as §1

HCC-827 = test system: HCC-827
Summary of the method: as §1

NCI-H1975 = test system: NCI-H1975
Summary of the method: as §1

NCI-H2085 = test system: NCI-H2085
Summary of the method: as §1

NCI-H2126 = test system: NCI-H2126
Summary of the method: as §1

SW 1573 = test system: SW 1573
Summary of the method: as §1

EPLC-272H = test system: EPLC-272H
Summary of the method: as §1

LU99A = test system: LU99A
Summary of the method: as §1

H3255 = test system: H3255
Summary of the method: as §1

LCLC-97TM1 = test system: LCLC-97TM1
Summary of the method: as §1

HOP-62 = test system: HOP-62
Summary of the method: as §1

LOU-NH91 = test system: LOU-NH91
Summary of the method: as §1

NCI-H1437 = test system: NCI-H1437
Summary of the method: as §1

NCI-H358 = test system: NCI-H358
Summary of the method: as §1

EKVX = test system: EKVX
Summary of the method: as §1

PC-3 [JPC-3] = test system: PC-3 [JPC-3]
Summary of the method: as §1

NCI-H1395 = test system: NCI-H1395
Summary of the method: as §1

## C[C@@H]1CN(CC(=O)Nc2ccc3c(c2)Cc2cccc(-c4cc(=O)cc(N5CCOCC5)o4)c2S3)C[C@H](C)O1 + O=C(CCCCCCC(=O)Nc1ccccc1)NO [Vorinostat] (partner 1 µM)
NCI-H1666; first compound 0.04 µM
  relative viability: 1.01
NCI-H1666; first compound 0.1265 µM
  relative viability: 1.17
NCI-H1666; first compound 0.4 µM
  relative viability: 1.09
NCI-H1666; first compound 4 µM
  relative viability: 0.885
BEN; first compound 0.04 µM
  relative viability: 0.56
BEN; first compound 0.1265 µM
  relative viability: 0.55
BEN; first compound 0.4 µM
  relative viability: 0.602
BEN; first compound 4 µM
  relative viability: 0.625
NCI-H647; first compound 0.04 µM
  relative viability: 0.547
NCI-H647; first compound 0.1265 µM
  relative viability: 0.491
NCI-H647; first compound 0.4 µM
  relative viability: 0.665
NCI-H647; first compound 4 µM
  relative viability: 0.416
201T; first compound 0.04 µM
  relative viability: 0.926
201T; first compound 0.1265 µM
  relative viability: 0.942
201T; first compound 0.4 µM
  relative viability: 1.01
201T; first compound 4 µM
  relative viability: 0.81
NCI-H2087; first compound 0.04 µM
  relative viability: 0.85
NCI-H2087; first compound 0.1265 µM
  relative viability: 0.587
NCI-H2087; first compound 0.4 µM
  relative viability: 0.663
NCI-H2087; first compound 4 µM
  relative viability: 0.62
HCC-44; first compound 0.04 µM
  relative viability: 1.12
HCC-44; first compound 0.1265 µM
  relative viability: 1.01
HCC-44; first compound 0.4 µM
  relative viability: 1.08
HCC-44; first compound 4 µM
  relative viability: 0.966
COR-L 105; first compound 0.04 µM
  relative viability: 0.799
COR-L 105; first compound 0.1265 µM
  relative viability: 0.783
COR-L 105; first compound 0.4 µM
  relative viability: 0.926
COR-L 105; first compound 4 µM
  relative viability: 0.875
NCI-H2342; first compound 0.04 µM
  relative viability: 0.609
NCI-H2342; first compound 0.1265 µM
  relative viability: 0.652
NCI-H2342; first compound 0.4 µM
  relative viability: 0.668
NCI-H2342; first compound 4 µM
  relative viability: 0.703
HCC-827; first compound 0.04 µM
  relative viability: 0.801
HCC-827; first compound 0.1265 µM
  relative viability: 0.862
HCC-827; first compound 0.4 µM
  relative viability: 0.727
HCC-827; first compound 4 µM
  relative viability: 0.757
NCI-H1975; first compound 0.04 µM
  relative viability: 0.68
NCI-H1975; first compound 0.1265 µM
  relative viability: 0.717
NCI-H1975; first compound 0.4 µM
  relative viability: 0.61
NCI-H1975; first compound 4 µM
  relative viability: 0.536
NCI-H2085; first compound 0.04 µM
  relative viability: 0.814
NCI-H2085; first compound 0.1265 µM
  relative viability: 0.782
NCI-H2085; first compound 0.4 µM
  relative viability: 0.69
NCI-H2085; first compound 4 µM
  relative viability: 0.667
NCI-H2126; first compound 0.04 µM
  relative viability: 0.853
NCI-H2126; first compound 0.1265 µM
  relative viability: 0.768
NCI-H2126; first compound 0.4 µM
  relative viability: 0.759
NCI-H2126; first compound 4 µM
  relative viability: 0.701
SW 1573; first compound 0.04 µM
  relative viability: 0.551
SW 1573; first compound 0.1265 µM
  relative viability: 0.989
SW 1573; first compound 0.4 µM
  relative viability: 0.909
SW 1573; first compound 4 µM
  relative viability: 0.769
EPLC-272H; first compound 0.04 µM
  relative viability: 0.457
EPLC-272H; first compound 0.1265 µM
  relative viability: 0.414
EPLC-272H; first compound 0.4 µM
  relative viability: 0.407
EPLC-272H; first compound 4 µM
  relative viability: 0.307
LU99A; first compound 0.04 µM
  relative viability: 0.444
LU99A; first compound 0.1265 µM
  relative viability: 0.582
LU99A; first compound 0.4 µM
  relative viability: 0.544
LU99A; first compound 4 µM
  relative viability: 0.595
H3255; first compound 0.04 µM
  relative viability: 0.634
H3255; first compound 0.1265 µM
  relative viability: 0.757
H3255; first compound 0.4 µM
  relative viability: 0.985
H3255; first compound 4 µM
  relative viability: 0.67
LCLC-97TM1; first compound 0.1265 µM
  relative viability: 0.547
LCLC-97TM1; first compound 0.4 µM
  relative viability: 0.685
LCLC-97TM1; first compound 4 µM
  relative viability: 0.552
HOP-62; first compound 0.04 µM
  relative viability: 0.477
HOP-62; first compound 0.1265 µM
  relative viability: 0.648
HOP-62; first compound 0.4 µM
  relative viability: 0.687
HOP-62; first compound 4 µM
  relative viability: 0.509
LOU-NH91; first compound 0.04 µM
  relative viability: 0.611
LOU-NH91; first compound 0.1265 µM
  relative viability: 0.945
LOU-NH91; first compound 0.4 µM
  relative viability: 0.847
LOU-NH91; first compound 4 µM
  relative viability: 0.785
NCI-H1437; first compound 0.04 µM
  relative viability: 0.837
NCI-H1437; first compound 0.1265 µM
  relative viability: 0.768
NCI-H1437; first compound 0.4 µM
  relative viability: 0.819
NCI-H1437; first compound 4 µM
  relative viability: 0.609
NCI-H358; first compound 0.04 µM
  relative viability: 0.724
NCI-H358; first compound 0.1265 µM
  relative viability: 0.589
NCI-H358; first compound 0.4 µM
  relative viability: 0.687
NCI-H358; first compound 4 µM
  relative viability: 0.261
EKVX; first compound 0.04 µM
  relative viability: 0.753
EKVX; first compound 0.1265 µM
  relative viability: 0.666
EKVX; first compound 0.4 µM
  relative viability: 0.696
EKVX; first compound 4 µM
  relative viability: 0.661
PC-3 [JPC-3]; first compound 0.04 µM
  relative viability: 0.822
PC-3 [JPC-3]; first compound 0.1265 µM
  relative viability: 0.792
PC-3 [JPC-3]; first compound 0.4 µM
  relative viability: 0.821
PC-3 [JPC-3]; first compound 4 µM
  relative viability: 0.821
NCI-H1395; first compound 0.1265 µM
  relative viability: 0.631
NCI-H1395; first compound 0.4 µM
  relative viability: 0.597
NCI-H1395; first compound 4 µM
  relative viability: 0.812
